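In this assay, cells in 96-well plates receive the compound at five concentrations for 48 hours. Endpoints are linearly interpolated between the surrounding concentrations. At the GI50, growth is halved.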 Active and inactive are the calls of the source. Rule as the data show it: active = GI50 up to about 1.1 µM and inactive = higher.
What was measured:
Experiment in all cases: inhibition of tumour cell growth, NCI panel, 48 h
A498 = test system: A498
DLD-1 = test system: DLD-1
HCC 2998 = test system: HCC 2998
HL-60 = test system: HL-60
HOP-62 = test system: HOP-62
K562 = test system: K562
KM-20L2 = test system: KM-20L2
MCF7 = test system: MCF7
Malme-3M = test system: Malme-3M
NCI-H226 = test system: NCI-H226
OVCAR-4 = test system: OVCAR-4
RXF 393 = test system: RXF 393
SNB-78 = test system: SNB-78
UACC-257 = test system: UACC-257
XF498 = test system: XF498
ACHN = test system: ACHN
DMS-114 = test system: DMS-114
TK-10 = test system: TK-10
Hs-578T = test system: Hs-578T
RXF 631 = test system: RXF 631

Structure (SMILES) | GI50 (A498) | GI50 (DLD-1) | GI50 (HCC 2998) | GI50 (HL-60) | GI50 (HOP-62) | GI50 (K562) | GI50 (KM-20L2) | GI50 (MCF7) | GI50 (Malme-3M) | GI50 (NCI-H226) | GI50 (OVCAR-4) | GI50 (RXF 393) | GI50 (SNB-78) | GI50 (UACC-257) | GI50 (XF498) | GI50 (ACHN) | GI50 (DMS-114) | GI50 (TK-10) | GI50 (Hs-578T) | GI50 (RXF 631)
Cc1cc(C)c(C2=NO[C@@H]3[C@H]2C(=O)C=C2N(Cc4ccccc4)CCO[C@@]23O)c(C)c1 | > 100 µM (inactive) | > 100 µM (inactive) | > 100 µM (inactive) | > 100 µM (inactive) | > 100 µM (inactive) | > 100 µM (inactive) | > 100 µM (inactive) | > 100 µM (inactive) | > 100 µM (inactive) | > 100 µM (inactive) | > 100 µM (inactive) | > 100 µM (inactive) | > 100 µM (inactive) | > 100 µM (inactive) | > 100 µM (inactive) | – | – | – | – | –
O=C(Nc1ccc(F)cc1)C(=O)C(C(=O)c1ccccc1F)C1OC(=O)c2ccccc21 (stereo not given) | > 100 µM (inactive) | 76.4 µM (inactive) | 38.5 µM (inactive) | 29.8 µM (inactive) | > 100 µM (inactive) | 34.7 µM (inactive) | 86.3 µM (inactive) | – | – | 21.4 µM (inactive) | 55.3 µM (inactive) | > 100 µM (inactive) | 44.6 µM (inactive) | > 100 µM (inactive) | 50.8 µM (inactive) | > 100 µM (inactive) | 45.5 µM (inactive) | > 100 µM (inactive) | – | –
CN(C)CCNC(=O)c1ccc(Cl)c2ccc(-c3ccccc3)nc12 | 5.16 µM (inactive) | 2.92 µM (inactive) | 4.67 µM (inactive) | 2.58 µM (inactive) | 1.52 µM (inactive) | 2.27 µM (inactive) | 2.62 µM (inactive) | 3.31 µM (inactive) | 3.52 µM (inactive) | 2.32 µM (inactive) | 3.54 µM (inactive) | 5.38 µM (inactive) | 6.32 µM (inactive) | 4.04 µM (inactive) | 3.16 µM (inactive) | – | – | – | – | –
Clc1ccc(N/N=C(\c2ccccc2)c2ccccn2)nc1 | 49.8 µM (inactive) | – | 3.81 µM (inactive) | < 0.01 µM (active) | 1.12 µM (active) | – | – | < 0.01 µM (active) | < 0.01 µM (active) | 0.0891 µM (active) | 3.04 µM (inactive) | 2.2 µM (inactive) | – | < 0.0158 µM (active) | – | < 0.01 µM (active) | – | – | 0.456 µM (active) | –
COCC1N=C(c2cc(OC)c(OC)c(OC)c2-c2cc3c(cc2[C@@H](C)O)OCO3)O[C@H]1c1ccccc1 (stereo not given in full) | > 94.4 µM (inactive) | > 89.7 µM (inactive) | > 100 µM (inactive) | > 100 µM (inactive) | 86.3 µM (inactive) | > 100 µM (inactive) | 98.2 µM (inactive) | > 61.1 µM (inactive) | > 80.5 µM (inactive) | > 77.1 µM (inactive) | 37.6 µM (inactive) | 33.7 µM (inactive) | > 45.2 µM (inactive) | > 100 µM (inactive) | – | – | – | – | – | –
CCOCc1cc(=O)c2c(O)cc3c(c2o1)CCC(C)(C)O3 | > 100 µM (inactive) | > 100 µM (inactive) | – | > 100 µM (inactive) | – | > 100 µM (inactive) | > 100 µM (inactive) | – | > 100 µM (inactive) | > 100 µM (inactive) | – | – | > 100 µM (inactive) | – | – | > 100 µM (inactive) | > 100 µM (inactive) | > 100 µM (inactive) | – | > 100 µM (inactive)
CCOC(=O)C(Cc1c(-c2[nH]c3ccccc3c2CC(NC(=O)CNC(C)=O)C(=O)OCC)[nH]c2ccccc12)NC(=O)CNC(C)=O (stereo not given) | 65 µM (inactive) | – | 23.1 µM (inactive) | – | > 100 µM (inactive) | – | – | – | 20 µM (inactive) | – | > 100 µM (inactive) | – | – | 27.4 µM (inactive) | – | – | – | > 100 µM (inactive) | 32.6 µM (inactive) | –
NC(CCOCCP(=O)(O)CCOCCC(N)C(=O)O)C(=O)O (stereo not given) | – | – | > 100 µM (inactive) | > 100 µM (inactive) | – | > 100 µM (inactive) | – | > 100 µM (inactive) | – | – | > 100 µM (inactive) | > 100 µM (inactive) | – | > 100 µM (inactive) | – | > 100 µM (inactive) | – | > 100 µM (inactive) | > 100 µM (inactive) | –
COc1cc(S(=O)(=O)Nc2ccc(-c3csc(N4C(=O)C(C)SC4c4cccc(Oc5ccccc5)c4)n3)cc2)ccc1Cl (stereo not given) | 27.4 µM (inactive) | – | – | 27.2 µM (inactive) | 50.7 µM (inactive) | 36.5 µM (inactive) | – | 24.1 µM (inactive) | > 100 µM (inactive) | 27.1 µM (inactive) | – | 17.3 µM (inactive) | – | – | – | 57.8 µM (inactive) | – | – | 34 µM (inactive) | –
CCOC(=O)c1nc2ccc(OC)cc2c2c1Cc1ccccc1-2 | – | > 100 µM (inactive) | 87.1 µM (inactive) | – | > 100 µM (inactive) | > 100 µM (inactive) | > 100 µM (inactive) | – | > 100 µM (inactive) | > 100 µM (inactive) | 49.8 µM (inactive) | 16.2 µM (inactive) | > 100 µM (inactive) | > 100 µM (inactive) | – | > 100 µM (inactive) | 23.9 µM (inactive) | > 100 µM (inactive) | – | 61.7 µM (inactive)
COc1cc(C2c3cc4c(cc3[C@@H](Nc3cccc([N+](=O)[O-])c3)C3COC(=O)[C@H]23)OCO4)cc(OC)c1O (stereo not given in full) | 1.46 µM (inactive) | 1.93 µM (inactive) | 2.33 µM (inactive) | 1.05 µM (active) | 0.796 µM (active) | 2.94 µM (inactive) | 3.64 µM (inactive) | 0.944 µM (active) | 2.62 µM (inactive) | 1.85 µM (inactive) | 20.2 µM (inactive) | 2.21 µM (inactive) | 5.66 µM (inactive) | 4.73 µM (inactive) | 3.13 µM (inactive) | – | 2.7 µM (inactive) | – | – | –
OCC1C2C=CC(O2)[C@H]1CO (stereo not given in full) | > 100 µM (inactive) | > 100 µM (inactive) | > 100 µM (inactive) | > 100 µM (inactive) | > 100 µM (inactive) | – | > 100 µM (inactive) | – | > 100 µM (inactive) | > 100 µM (inactive) | > 100 µM (inactive) | 42.4 µM (inactive) | > 100 µM (inactive) | > 100 µM (inactive) | – | > 100 µM (inactive) | 92.7 µM (inactive) | > 100 µM (inactive) | – | > 100 µM (inactive)
CC1CC=CC(O)C1 (stereo not given) | > 100 µM (inactive) | > 100 µM (inactive) | > 100 µM (inactive) | > 100 µM (inactive) | > 100 µM (inactive) | > 100 µM (inactive) | > 100 µM (inactive) | > 100 µM (inactive) | > 100 µM (inactive) | > 100 µM (inactive) | > 100 µM (inactive) | > 100 µM (inactive) | > 100 µM (inactive) | > 100 µM (inactive) | > 100 µM (inactive) | – | > 100 µM (inactive) | – | – | –

— ChEMBL document CHEMBL1201862, “PubChem BioAssay data set” (2004)
